Source: PubChem BioAssay AID330 (DTP/NCI, 2004)
Several values for one entry are separate records, joined by “and”; a condition that tells them apart may be missing. Equal entries are not always repeated. Toxic doses and inconclusive results are not listed.

Tested on: P388 leukemia ip, CD2F1 mice, survival T/C
Test: NCI In Vivo Anticancer Drug Screen. Data for tumor model P388 Leukemia (intraperitoneal) in CD2F1 (CDF1) mice
Details: endpoint: median survival time, higher = longer survival
Summary of the method: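 Mice carrying the transplanted tumor received test compound or vehicle. Survival was recorded in each group, and the value is the treated-group measurement divided by that of the vehicle-treated control group.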

[1] = dose: 37.5 mg/kg/injection, schedule: Q01DX009 (ip), vehicle: Klucel (hydroxypropylcellulose) (HPC)
[2] = dose: 75.0 mg/kg/injection, schedule: Q01DX009 (ip), vehicle: Klucel (hydroxypropylcellulose) (HPC)
[3] = dose: 150.0 mg/kg/injection, schedule: Q01DX009 (ip), vehicle: Klucel (hydroxypropylcellulose) (HPC)
[4] = dose: 50.0 mg/kg/injection, schedule: Q01DX005 (ip), vehicle: saline
[5] = dose: 100.0 mg/kg/injection, schedule: Q01DX005 (ip), vehicle: saline
[6] = dose: 200.0 mg/kg/injection, schedule: Q01DX005 (ip), vehicle: saline
[7] = dose: 50.0 mg/kg/injection, schedule: Q01DX005 (ip), vehicle: saline with Tween-80
[8] = dose: 100.0 mg/kg/injection, schedule: Q01DX005 (ip), vehicle: saline with Tween-80
[9] = dose: 200.0 mg/kg/injection, schedule: Q01DX005 (ip), vehicle: saline with Tween-80
[10] = dose: 12.5 mg/kg/injection, schedule: Q01DX009 (ip), vehicle: Klucel (hydroxypropylcellulose) (HPC)
[11] = dose: 25.0 mg/kg/injection, schedule: Q01DX009 (ip), vehicle: Klucel (hydroxypropylcellulose) (HPC)
[12] = dose: 50.0 mg/kg/injection, schedule: Q01DX009 (ip), vehicle: Klucel (hydroxypropylcellulose) (HPC)
[13] = dose: 100.0 mg/kg/injection, schedule: Q01DX009 (ip), vehicle: Klucel (hydroxypropylcellulose) (HPC)
[14] = dose: 25.0 mg/kg/injection, schedule: Q01DX009 (ip), vehicle: saline with Tween-80
[15] = dose: 50.0 mg/kg/injection, schedule: Q01DX009 (ip), vehicle: saline with Tween-80
[16] = dose: 100.0 mg/kg/injection, schedule: Q04DX003 (ip), vehicle: saline with Tween-80
[17] = dose: 200.0 mg/kg/injection, schedule: Q04DX003 (ip), vehicle: saline with Tween-80
[18] = dose: 400.0 mg/kg/injection, schedule: Q04DX003 (ip), vehicle: saline with Tween-80
[19] = dose: 200.0 mg/kg/injection, schedule: Q01DX009 (ip), vehicle: Klucel (hydroxypropylcellulose) (HPC)
[20] = dose: 50.0 mg/kg/injection, schedule: Q01DX005 (ip), vehicle: Klucel (hydroxypropylcellulose) (HPC)
[21] = dose: 100.0 mg/kg/injection, schedule: Q01DX005 (ip), vehicle: Klucel (hydroxypropylcellulose) (HPC)
[22] = dose: 200.0 mg/kg/injection, schedule: Q01DX005 (ip), vehicle: Klucel (hydroxypropylcellulose) (HPC)
[23] = dose: 200.0 mg/kg/injection, schedule: Q01DX009 (ip), vehicle: saline with Tween-80
[24] = dose: 100.0 mg/kg/injection, schedule: Q01DX009 (ip), vehicle: saline with Tween-80

For `O=C(O)C1=CO[C@@H](OC2OC(CO)C(O)C(O)C2O)[C@H]2[C@@H]1C=C[C@]2(O)CO` (stereo partly specified), the T/C (dose: 4.68 mg/kg/injection, schedule: Q01DX009 (ip), vehicle: Klucel (hydroxypropylcellulose) (HPC)) was 101 % of control, the T/C (dose: 9.37 mg/kg/injection, schedule: Q01DX009 (ip), vehicle: Klucel (hydroxypropylcellulose) (HPC)) was 97 % of control and the T/C (dose: 18.75 mg/kg/injection, schedule: Q01DX009 (ip), vehicle: Klucel (hydroxypropylcellulose) (HPC)) was 97 % of control. The T/C [1] was 94 % of control, the T/C [2] was 98 % of control and 90 % of control and the T/C [3] was 97 % of control.

For `CCN(CC)CCCN1CC(=O)N2CCCCN2C(=O)C1`, the T/C [4] was 102 % of control, the T/C [5] was 100 % of control and the T/C [6] was 100 % of control.

In the case of `CCOC(=O)c1cc(-c2ccccc2)c(OC)c(=O)nc1-c1ccccc1`, the T/C (dose: 25.0 mg/kg/injection, schedule: Q01DX005 (ip), vehicle: saline with Tween-80) is reported as 100 % of control, the T/C [7] is reported as 100 % of control and the T/C [8] is reported as 100 % of control. For the same compound, the T/C [9] was 112 % of control.

With `Clc1c2ccccc2[se][n+]1Cc1ccccc1` the T/C [10] was 104 % of control and 108 % of control and 111 % of control, the T/C [11] was 105 % of control and 106 % of control and 112 % of control and the T/C [12] was 105 % of control and 107 % of control and 121 % of control. The T/C [13] was 106 % of control and 110 % of control.

In the case of `CS[C@@H]1C[C@H]2[C@@H]3CCC4=CC(=O)CC[C@]4(C)[C@H]3CC[C@]2(C)[C@H]1C(C)=O`, the T/C (dose: 12.5 mg/kg/injection, schedule: Q01DX009 (ip), vehicle: saline with Tween-80) is reported as 90 % of control, the T/C [14] is reported as 90 % of control and the T/C [15] is reported as 100 % of control. The T/C [16] was 100 % of control, the T/C [17] was 90 % of control and the T/C [18] was 100 % of control.

With `O=c1c2ccccc2[nH]c2c(O)c3c(=O)c4ccccc4[nH]c3cc12` the T/C (dose: 100.0 mg/kg/injection, schedule: Q04DX003 (ip), vehicle: Klucel (hydroxypropylcellulose) (HPC)) was 102 % of control, the T/C (dose: 200.0 mg/kg/injection, schedule: Q04DX003 (ip), vehicle: Klucel (hydroxypropylcellulose) (HPC)) was 92 % of control and the T/C (dose: 400.0 mg/kg/injection, schedule: Q04DX003 (ip), vehicle: Klucel (hydroxypropylcellulose) (HPC)) was 102 % of control.

With `Cc1ccc(C(O)(c2ccc(C)cc2)C2(O)CCCCC2)cc1` the T/C [7] was 109 % of control, the T/C [8] was 100 % of control and the T/C [9] was 101 % of control.

For `CCCCCCCCCCCCCCCCCCOCC(O)CN(CCO)CCO` (stereo unspecified), the T/C [10] was 91 % of control, the T/C [11] was 91 % of control and the T/C [12] was 96 % of control.

In the case of `CCC(CC)CS(=O)(=O)OCCCCOS(=O)(=O)CC(CC)CC`, the T/C [4] is reported as 99 % of control, the T/C [5] is reported as 107 % of control and the T/C [6] is reported as 111 % of control.

In the case of `CCCCCCCCCC(=O)C(=O)c1ccc(O)cc1O`, the T/C [12] is reported as 94 % of control, the T/C [13] is reported as 93 % of control and the T/C [19] is reported as 94 % of control.

With `CCOC(=O)c1cnc(=O)[nH]c1C(=O)OCC` the T/C [20] was 91 % of control, the T/C [21] was 100 % of control and the T/C [22] was 99 % of control.

In the case of `COc1cc(OC)c2c(c1)Oc1cc(OC)cc(OC)c1C2`, the T/C [20] is reported as 97 % of control, the T/C [21] is reported as 96 % of control and the T/C [22] is reported as 95 % of control.

With `C=CCSc1nc2ccc(N3C(=O)C4C5C=CC(C5)C4C3=O)cc2s1` (stereo unspecified) the T/C [12] was 87 % of control, the T/C [13] was 92 % of control and the T/C [19] was 93 % of control.

With `CCNc1ccc2c(-c3ccccc3C(=O)O)c3ccc(=[N+](CC)CC)cc-3oc2c1` the T/C [7] was 105 % of control and the T/C [8] was 95 % of control.

For `C1CC[N-]CC1.C1CC[N-]CC1.C1CC[N-]CC1.C1CC[N-]CC1.[Cl][Co][Cl]`, the T/C (dose: 25.0 mg/kg/injection, schedule: Q04DX003 (ip), vehicle: saline with Tween-80) was 100 % of control, the T/C (dose: 33.0 mg/kg/injection, schedule: Q01DX009 (ip), vehicle: saline with Tween-80) was 91 % of control and the T/C [16] was 118 % of control.

In the case of `O=C1CCCCC(=O)Nc2ccc3nc4ccccc4c(c3c2)SCCCCCCCCSc2c3ccccc3nc3ccc(cc23)N1`, the T/C (dose: 60.0 mg/kg/injection, schedule: Q01DX005 (ip), vehicle: saline with Tween-80) is reported as 101 % of control, the T/C (dose: 120.0 mg/kg/injection, schedule: Q01DX005 (ip), vehicle: saline with Tween-80) is reported as 110 % of control and the T/C (dose: 240.0 mg/kg/injection, schedule: Q01DX005 (ip), vehicle: saline with Tween-80) is reported as 91 % of control.

In the case of `CCCCCCCCCCCC(=O)N(CCCC)CCCC`, the T/C [1] is reported as 100 % of control, the T/C [2] is reported as 98 % of control and the T/C [3] is reported as 92 % of control.

For `O=C(O)c1c2c(nc3ccccc13)Cc1ccccc1-2`, the T/C (dose: 6.25 mg/kg/injection, schedule: Q01DX009 (ip), vehicle: Klucel (hydroxypropylcellulose) (HPC)) was 97 % of control, the T/C (dose: 6.25 mg/kg/injection, schedule: Q01DX009 (ip), vehicle: water) was 101 % of control and the T/C [10] was 98 % of control. For the same compound, the T/C (dose: 12.5 mg/kg/injection, schedule: Q01DX009 (ip), vehicle: water) was 99 % of control and 109 % of control, the T/C [11] was 106 % of control and the T/C (dose: 25.0 mg/kg/injection, schedule: Q01DX009 (ip), vehicle: water) was 104 % of control and 110 % of control and 114 % of control. The T/C [15] was 110 % of control, the T/C (dose: 50.0 mg/kg/injection, schedule: Q01DX009 (ip), vehicle: water) was 115 % of control and 121 % of control and the T/C [13] was 160 % of control and 169 % of control. For the same compound, the T/C (dose: 100.0 mg/kg/injection, schedule: Q01DX009 (ip), vehicle: water) was 166 % of control and 172 % of control, the T/C [19] was 172 % of control and 179 % of control and the T/C [23] was 181 % of control. For the same compound, the T/C (dose: 200.0 mg/kg/injection, schedule: Q01DX009 (ip), vehicle: water) was 106 % of control.

`[Be]=[Se]` was tested, and the T/C (dose: 7.5 mg/kg/injection, schedule: Q01DX005 (ip), vehicle: other) was 97 % of control and the T/C (dose: 15.0 mg/kg/injection, schedule: Q01DX005 (ip), vehicle: other) was 103 % of control and 108 % of control.

For `CCOC(=O)C1C(=O)N2C(=O)C(NC(C)=O)=C(O)C2C1c1ccc(OC)cc1` (stereo unspecified), the T/C (dose: 100.0 mg/kg/injection, schedule: Q04DX002 (ip), vehicle: saline with Tween-80) was 100 % of control, the T/C (dose: 200.0 mg/kg/injection, schedule: Q04DX002 (ip), vehicle: saline with Tween-80) was 100 % of control and the T/C (dose: 400.0 mg/kg/injection, schedule: Q04DX002 (ip), vehicle: saline with Tween-80) was 98 % of control.

With `Cc1ccc(N2C(=O)c3cccc4c(N)c(S(=O)(=O)O)cc(c34)C2=O)cc1` the T/C (dose: 50.0 mg/kg/injection, schedule: Q01DX009 (ip), vehicle: saline) was 108 % of control, the T/C (dose: 100.0 mg/kg/injection, schedule: Q01DX009 (ip), vehicle: saline) was 104 % of control and the T/C (dose: 200.0 mg/kg/injection, schedule: Q01DX009 (ip), vehicle: saline) was 100 % of control.

With `O=C(CBr)c1ccc(C(F)(F)F)cc1` the T/C (dose: 6.25 mg/kg/injection, schedule: Q01DX009 (ip), vehicle: DMSO) was 99 % of control and the T/C (dose: 12.5 mg/kg/injection, schedule: Q01DX009 (ip), vehicle: DMSO) was 88 % of control.

For `CC(=O)OCC1OC(n2cnc3c(=S)nc[nH]c32)C(OC(C)=O)C1OC(C)=O` (stereo unspecified), the T/C [16] was 109 % of control, the T/C [17] was 109 % of control and the T/C [18] was 118 % of control.

With `Cn1c2ccccc2c(=Nc2ccc(S(=O)(=O)N=C(N)N)cc2)c2ccccc21` the T/C [7] was 106 % of control and the T/C [8] was 96 % of control.

For `Fc1ccc(NC(=S)NC2CC2)c(F)c1`, the T/C [15] was 104 % of control and the T/C [24] was 104 % of control.

For `CN(C)c1ccc(C=C2C(=O)NC(=O)NC2=O)cc1`, the T/C [14] was 118 % of control, the T/C [15] was 113 % of control and the T/C [24] was 116 % of control. For the same compound, the T/C [23] was 106 % of control.

In the case of `CC1=C(O[Si](C)(C)C)CCC1=O`, the T/C [7] is reported as 113 % of control, the T/C [8] is reported as 105 % of control and the T/C [9] is reported as 106 % of control.

`O=c1[nH]c(=O)c2nc3cc(Cl)ccc3nc2[nH]1` was tested, and the T/C [20] was 116 % of control, the T/C [21] was 104 % of control and the T/C [22] was 99 % of control.

With `COc1ccc2c(C)cc(N/N=C/c3ccc(OC)c4ccccc34)nc2c1` the T/C [20] was 98 % of control, the T/C [21] was 102 % of control and the T/C [22] was 94 % of control.
